Results on 5 molecules are retold here after US10835505B2, “Oral pharmaceutical formulation for weight loss, diabetes and related disorders” (priority 2018, dated 2020).

The structures appear in SMILES notation. Counter-ions that a name gives are not always drawn.

Data set [1] has as its system TAS2R subtypes. Particulars: cited from earlier work.
For data set [2] the following is noted: in vivo; cited from earlier work.
Data set [3] can be described thus: acute food intake inhibition study, oral gavage, Sprague Dawley rats. Format: in vivo. From the text:
In a short-term food intake inhibition study, in Sprague Dawley rats the doses of DB administered were 7.5, 15, 30, and 60 μmol/kg. The corresponding human equivalent doses (HED) are be 1.2, 2.4, 4.9, 9.7 μmol/kg, respectively. In a longer-term food intake inhibition study in C57BL/6NTac mice the dose of DB used was 60 μmol/kg. The corresponding HED was 4.9 μmol/kg. […] Therefore, the disclosed formulation provides a dose of DB from about 500 nmol/kg to about […], which corresponds to from about 10 mg to about 200 mg for a human adult.
This example provides the results of an oral dose rat gavage study, measuring food and water intake following administration of a disclosed formulation by gavage. We conducted an acute food intake inhibition study of DB in Sprague Dawley rats.
For a longer term study, in view of the foregoing acute study findings, the effect of a combination of components was investigated. To ensure the adequate effect of the DB combination, 60 μmol/kg (26.8 mg/kg) once daily for DB in the first two weeks of the study was used, and then switched to twice daily in the last two weeks of the study.

The conditions of data set [4]: healthy volunteers, 1 μmol/kg DB; cited from earlier work.
For data set [5] the following is noted: normal C57BL/6 mice, oral DB only at 60 μmol/kg (26.8 mg/kg); cited from earlier work.
For data set [6] the following is noted: C57BL/6 DIO mice, 60 μmol/kg DB (26.8 mg/kg) once daily, 28-day period, vs vehicle; cited from earlier work.
For data set [7] the following is noted: judged, times more bitter than denatonium benzoate; cited from earlier work.

Turning to `O=C(/C=C/c1ccc(O)c(O)c1)O[C@@H]1C[C@]2(O)C[C@@H](OC2=O)[C@@H]1O` [3-CQL, (1R,3R,4R,5R)-1,4-Dihydroxy-7-oxo-6-oxabicyclo[3.2.1]oct-3-yl (2E)-3-(3,4-dihydroxyphenyl)acrylate], the “number of TAS2R subtypes activated” value in data set [1] is listed as “eight”.
`CN1CCc2cccc3c2[C@H]1Cc1ccc(O)c(O)c1-3` [Apomorphine, (6aR)-5,6,6a,7-Tetrahydro-6-methyl-4H-dibenzo(de,g)chinolin-10,11-diol hydrochlorid]: in data set [2], the oral availability was ~4%.
For orientation: half-life means the time needed for the level to fall by half in the phase considered. In the case of `CC[N+](CC)(CC(=O)Nc1c(C)cccc1C)Cc1ccccc1.O=C([O-])c1ccccc1` [DB, benzyl-[2-(2,6-dimethylanilino)-2-oxoethyl]-diethylazanium benzoate], the food intake result in data set [3] (Sprague Dawley rats, various doses of DB by gavage, within the first 6 h after administration) is given as “significantly inhibited food intake”. Further, the half-life in data set [3] (rat, in vivo, oral, inferred from duration of food intake inhibition in Sprague Dawley rats) was 6 h. In data set [4], the nutrient volume tolerance result was “decreased nutrient volume tolerance” and the satiation entry is listed as “increased satiation”. Also, the gastric emptying rate entry in data set [5] is recorded as “significantly inhibited gastric emptying rate”. Besides, the body weight result in data set [6] was “induced a decrease in body weight”. Besides, the “number of TAS2R subtypes activated” value in data set [1] is “eight”.
Regarding `C=C[C@H]1C[N@]2CC[C@H]1C[C@H]2[C@H](O)c1ccnc2ccc(OC)cc12` [Quinine, (R)-[(2S,4S,5R)-5-ethenyl-1-azabicyclo[2.2.2]octan-2-yl]-(6-methoxyquinolin-4-yl)methanol, reference compound], the “number of TAS2R subtypes activated” value in data set [1] is listed as “nine”.
For the molecule `CC[N+](CC)(CC(=O)Nc1c(C)cccc1C)Cc1ccccc1` [denatonium saccharide, benzyl-[2-(2,6-dimethylanilino)-2-oxoethyl]-diethylazanium; 1,1-dioxo-1,2-benzothiazol-3-olate], in data set [7], the “bitterness relative to denatonium benzoate” value is given as 5 times.
